Assays:
Neuropeptide Y Y2 = biological target: T1, Neuropeptide Y Y2 (Homo sapiens, UniProt P49146); type: binding; details: 10 µM
T1 construct: Human KAN-TS cells; host or cells: KAN-TS cells

[1] = test system: Glutamate, NMDA, Phencyclidine; test: Radioligand binding 233000; design: species or system rat; details: 10 µM
Transporter, GABA = biological target: T2, Transporter, GABA (Rattus norvegicus, UniProt P23978); test: Radioligand binding 226400; details: 10 µM
T2 construct: Wistar Rat cerebral cortex; tissue Eurofins Panlabs 226400; host or cells: Wistar rat cerebral cortex

Calcium Channel N-Type = Calcium Channel N-Type (Rattus norvegicus, UniProt Q02294); test: biochemical; type: binding; details: 10 µM
Sequence of Calcium Channel N-Type (Q02294 whole entry, looked up): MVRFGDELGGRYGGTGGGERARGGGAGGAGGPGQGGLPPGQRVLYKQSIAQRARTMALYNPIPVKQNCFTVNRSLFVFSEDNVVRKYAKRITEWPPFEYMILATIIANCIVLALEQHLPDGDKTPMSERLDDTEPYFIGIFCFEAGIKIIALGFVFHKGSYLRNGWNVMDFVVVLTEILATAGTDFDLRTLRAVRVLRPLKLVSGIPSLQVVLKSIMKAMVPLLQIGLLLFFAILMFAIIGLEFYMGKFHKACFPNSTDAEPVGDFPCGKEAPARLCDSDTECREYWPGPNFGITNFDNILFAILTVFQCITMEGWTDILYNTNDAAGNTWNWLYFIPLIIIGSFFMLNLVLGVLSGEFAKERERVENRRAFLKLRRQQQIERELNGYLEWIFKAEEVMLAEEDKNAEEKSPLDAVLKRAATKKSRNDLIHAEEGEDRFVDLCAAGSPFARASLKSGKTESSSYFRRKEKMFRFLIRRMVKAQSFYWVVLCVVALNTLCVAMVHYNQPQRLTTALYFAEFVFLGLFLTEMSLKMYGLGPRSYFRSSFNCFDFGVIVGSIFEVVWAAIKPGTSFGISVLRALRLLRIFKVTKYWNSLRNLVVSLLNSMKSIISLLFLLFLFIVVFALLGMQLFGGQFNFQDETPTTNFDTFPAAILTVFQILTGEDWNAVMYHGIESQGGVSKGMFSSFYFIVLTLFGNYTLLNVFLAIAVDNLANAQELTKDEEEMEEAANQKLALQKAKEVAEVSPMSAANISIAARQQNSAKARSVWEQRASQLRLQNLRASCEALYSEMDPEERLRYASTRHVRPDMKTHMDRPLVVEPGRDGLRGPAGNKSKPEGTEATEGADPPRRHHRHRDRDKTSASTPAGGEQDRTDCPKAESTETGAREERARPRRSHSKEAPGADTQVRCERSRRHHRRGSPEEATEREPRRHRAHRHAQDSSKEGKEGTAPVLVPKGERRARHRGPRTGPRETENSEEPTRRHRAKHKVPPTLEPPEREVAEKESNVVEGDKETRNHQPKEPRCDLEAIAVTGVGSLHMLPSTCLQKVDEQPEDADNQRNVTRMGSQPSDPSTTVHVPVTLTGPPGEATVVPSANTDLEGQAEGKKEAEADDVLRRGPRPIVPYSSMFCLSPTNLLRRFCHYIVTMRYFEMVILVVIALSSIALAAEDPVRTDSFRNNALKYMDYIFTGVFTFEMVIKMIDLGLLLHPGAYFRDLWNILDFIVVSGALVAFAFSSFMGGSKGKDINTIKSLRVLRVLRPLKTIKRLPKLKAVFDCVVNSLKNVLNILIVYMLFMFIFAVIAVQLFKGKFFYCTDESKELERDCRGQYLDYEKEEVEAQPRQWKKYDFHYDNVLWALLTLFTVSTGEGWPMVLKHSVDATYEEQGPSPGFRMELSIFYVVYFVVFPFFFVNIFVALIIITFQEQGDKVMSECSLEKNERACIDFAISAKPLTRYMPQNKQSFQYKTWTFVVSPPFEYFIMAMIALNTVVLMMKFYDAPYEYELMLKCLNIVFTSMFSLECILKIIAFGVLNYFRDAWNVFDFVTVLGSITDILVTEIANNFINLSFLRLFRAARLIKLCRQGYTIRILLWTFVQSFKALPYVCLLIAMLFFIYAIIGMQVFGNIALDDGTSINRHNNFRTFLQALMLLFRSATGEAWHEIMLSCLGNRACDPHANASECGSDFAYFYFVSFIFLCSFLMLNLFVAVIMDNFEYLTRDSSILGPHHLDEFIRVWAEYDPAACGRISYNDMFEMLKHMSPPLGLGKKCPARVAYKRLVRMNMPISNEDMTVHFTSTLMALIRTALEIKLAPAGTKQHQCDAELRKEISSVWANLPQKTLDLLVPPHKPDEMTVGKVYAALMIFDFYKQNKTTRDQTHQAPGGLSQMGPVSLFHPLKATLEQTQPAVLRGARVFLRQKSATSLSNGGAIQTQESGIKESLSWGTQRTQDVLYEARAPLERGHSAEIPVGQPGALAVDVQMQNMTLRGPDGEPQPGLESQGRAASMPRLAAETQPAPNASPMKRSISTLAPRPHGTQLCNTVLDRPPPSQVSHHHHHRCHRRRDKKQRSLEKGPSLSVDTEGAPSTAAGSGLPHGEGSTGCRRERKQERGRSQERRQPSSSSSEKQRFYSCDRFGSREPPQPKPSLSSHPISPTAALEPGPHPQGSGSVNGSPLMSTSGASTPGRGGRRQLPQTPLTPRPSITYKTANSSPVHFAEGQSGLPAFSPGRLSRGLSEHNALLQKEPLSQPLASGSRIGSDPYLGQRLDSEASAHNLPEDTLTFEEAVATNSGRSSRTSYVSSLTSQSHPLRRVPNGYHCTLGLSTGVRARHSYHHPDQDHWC

[2] = biological target: Serotonin (5-Hydroxytryptamine) 5-HT2B (Homo sapiens, UniProt P41595); test: Radioligand binding 271700; design: host or cells: CHO-K1; details: 10 µM
Sequence of Serotonin (5-Hydroxytryptamine) 5-HT2B (P41595 whole entry): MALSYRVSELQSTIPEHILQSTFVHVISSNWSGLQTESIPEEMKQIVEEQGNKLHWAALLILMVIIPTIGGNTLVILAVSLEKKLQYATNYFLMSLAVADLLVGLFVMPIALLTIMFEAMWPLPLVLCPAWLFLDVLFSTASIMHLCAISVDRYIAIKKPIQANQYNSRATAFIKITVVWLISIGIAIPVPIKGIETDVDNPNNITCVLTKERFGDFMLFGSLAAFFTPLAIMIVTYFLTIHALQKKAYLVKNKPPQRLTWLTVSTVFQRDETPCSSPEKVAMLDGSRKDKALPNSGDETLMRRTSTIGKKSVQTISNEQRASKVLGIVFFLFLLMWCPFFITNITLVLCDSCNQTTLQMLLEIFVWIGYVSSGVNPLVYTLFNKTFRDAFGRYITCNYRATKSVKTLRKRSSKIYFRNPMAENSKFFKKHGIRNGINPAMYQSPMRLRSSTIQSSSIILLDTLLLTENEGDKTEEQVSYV

Histamine H2 = Histamine H2 (Homo sapiens, UniProt P25021); test: Radioligand binding 239710; design: host or cells: CHO-K1 cells; details: 10 µM
[3] = test system: K1 capsule biogenesis in E. coli UTI89; type: cell-based, Escherichia coli; details: average of at least 3 replicates ± SEM, read-out: IC50 K1 phage
Description: The primary assay consisted of detection of the presence and absence of the K1 capsule on the E. coli urinary tract isolate UTI89 under growth conditions with compounds from a large chemical library. The assay was conducted as previously described with the following modifications. The primary assay was conducted in 1,536-well plate format. UTI89 ΔkpsM, an isogenic K1 capsule export mutant, was included as an unencapsulated control. Tetracycline, 50 µM, was used as a negative growth control. A 1∶75 dilution of overnight cultures were made in LB broth containing 0.5% DMSO, and 3 µL of this culture was added to each plate well, and plates were incubated, inverted, at 37°C for 2 hr. […]. The plates were centrifuged briefly, and then were incubated, inverted, at 37°C for an additional 2 hr. […] Resorufin fluorescence was measured using excitation of 560 nm and emission of 590 nm, as per the manufacturer's recommendations.
Concentration-response testing (concentration range = 0.58–300 µM) was used to confirm and characterize the primary screen hits, which was necessary to determine the number of compounds advanced to secondary screens. […] The strain UTI89 ΔkpsM, a K1 capsule export mutant, was evaluated with the wild-type strain as a phage-insensitive control (mimicking 100% capsule inhibition).

[4] = biological target: T3, Serotonin (5-Hydroxytryptamine) 5-HT1A (Homo sapiens, UniProt P08908); test: Radioligand binding 271110; details: 10 µM
T3 construct: host or cells: CHO-K1

[5] = biological target: Transporter, Dopamine (DAT) (Homo sapiens, UniProt Q01959); type: binding; design: host or cells: CHO-K1; details: 10 µM
Sequence of Transporter, Dopamine (DAT) (Q01959 whole entry): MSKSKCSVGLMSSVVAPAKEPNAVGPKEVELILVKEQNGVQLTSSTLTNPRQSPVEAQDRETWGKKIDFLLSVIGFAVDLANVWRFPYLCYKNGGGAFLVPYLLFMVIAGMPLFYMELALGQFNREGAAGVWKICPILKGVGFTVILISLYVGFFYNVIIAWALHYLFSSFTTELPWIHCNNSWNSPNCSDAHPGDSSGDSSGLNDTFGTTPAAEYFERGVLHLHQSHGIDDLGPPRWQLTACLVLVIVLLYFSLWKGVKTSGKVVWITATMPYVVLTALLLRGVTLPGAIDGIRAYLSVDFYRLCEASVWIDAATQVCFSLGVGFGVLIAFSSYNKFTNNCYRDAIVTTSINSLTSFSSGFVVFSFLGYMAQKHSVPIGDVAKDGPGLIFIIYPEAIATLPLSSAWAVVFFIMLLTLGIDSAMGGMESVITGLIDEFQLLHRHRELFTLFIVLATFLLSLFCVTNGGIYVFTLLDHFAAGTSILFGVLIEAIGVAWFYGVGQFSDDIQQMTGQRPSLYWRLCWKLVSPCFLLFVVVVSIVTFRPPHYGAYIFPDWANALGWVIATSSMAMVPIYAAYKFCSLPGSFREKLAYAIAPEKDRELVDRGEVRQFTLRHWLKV

Adenosine A2A = biological target: T4, Adenosine A2A (Homo sapiens, UniProt P29274); test: Radioligand binding 200610; details: 10 µM
T4 construct: host or cells: HEK-293 cells
T4 sequence (P29274 whole entry): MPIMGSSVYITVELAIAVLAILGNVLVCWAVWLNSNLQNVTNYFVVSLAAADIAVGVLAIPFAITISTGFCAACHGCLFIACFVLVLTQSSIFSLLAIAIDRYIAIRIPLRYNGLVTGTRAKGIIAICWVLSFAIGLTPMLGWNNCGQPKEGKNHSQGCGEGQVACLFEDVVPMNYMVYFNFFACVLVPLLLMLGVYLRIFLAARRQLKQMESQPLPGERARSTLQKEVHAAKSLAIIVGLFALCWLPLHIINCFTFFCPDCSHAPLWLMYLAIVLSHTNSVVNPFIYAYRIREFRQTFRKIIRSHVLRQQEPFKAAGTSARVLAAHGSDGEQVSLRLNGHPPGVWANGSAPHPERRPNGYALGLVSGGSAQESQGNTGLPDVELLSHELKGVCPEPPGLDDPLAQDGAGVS

Nicotinic Acetylcholine = test: Radioligand binding 258590; design: species or system human; details: 10 µM

T1 sequence (P49146 whole entry): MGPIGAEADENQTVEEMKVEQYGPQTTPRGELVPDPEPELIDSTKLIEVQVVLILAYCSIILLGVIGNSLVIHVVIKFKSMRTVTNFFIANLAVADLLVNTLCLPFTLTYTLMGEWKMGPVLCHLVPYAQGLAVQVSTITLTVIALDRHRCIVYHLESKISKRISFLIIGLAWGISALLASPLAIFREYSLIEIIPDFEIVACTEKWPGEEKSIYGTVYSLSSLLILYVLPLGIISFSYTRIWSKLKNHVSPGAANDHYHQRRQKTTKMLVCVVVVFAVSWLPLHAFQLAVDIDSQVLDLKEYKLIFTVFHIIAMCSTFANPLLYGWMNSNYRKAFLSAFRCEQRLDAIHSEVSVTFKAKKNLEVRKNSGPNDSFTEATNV

CCOc1ccc(-c2cc(NC(=O)c3c(F)cccc3F)c(C(=O)O)s2)cc1 [DU011]
% Inh. (Neuropeptide Y Y2): -6%
% Inh. [1]: 2%
% Inh. (Transporter, GABA): -4%
% Inh. (Calcium Channel N-Type): -18%
% Inh. [2]: 19%
% Inh. (Histamine H2): 2%
IC50 [3]: 4.5 ± 2.5 µM
% Inh. [4]: 11%
% Inh. [5]: -13%
% Inh. (Adenosine A2A): -6%
% Inh. (Nicotinic Acetylcholine): 22%

Source: PMC4077706, “Lifting the Mask: Identification of New Small Molecule Inhibitors of Uropathogenic Escherichia coli Group 2 Capsule Biogenesis” (PLoS ONE, 2014)
